Assay results as given in article PMC12678836, “Screening for dual-target enzyme inhibitors derived from Gardenia jasminoides roots, a medicinal and edible plant: investigation of their potential anti-dementia activity” (Frontiers in Nutrition, 2025).
Where two headings read alike, the source gives them in different places.

Experiments:
AChE [1] = target: T1, AChE (Musca domestica, UniProt A0ABM3VDL1); assay: Affinity ultrafiltration-HPLC binding degree to AChE; design: species or system fly; details: GJR extract, 37 °C 30 min
Experimental: (§1) A total of 300 g of GJR was accurately weighed, dried, and ground into a fine powder using a mechanical grinder. The powdered material was extracted with 60% ethanol (v/v) at a solvent-to-solid ratio of 20:1 (v/v). Each extraction cycle involved ultrasonication for 1 h and was performed twice to ensure exhaustive extraction. The combined extracts were concentrated to dryness by rotary evaporation under reduced pressure, yielding 6.75 g of crude extract. A 50 mg portion of the crude extract was accurately weighed, dissolved in 50% methanol–water (v/v), and diluted to a final concentration of 50 mg/ml to obtain a stock solution for subsequent experiments. All procedures were conducted under controlled laboratory conditions to ensure consistency and reproducibility.
(§2) The screening assay consisted of two groups: a blank control and an experimental group, both prepared in phosphate-buffered saline (PBS). In the experimental group, 10.0 μl of the sample solution was mixed with 90.0 μl of either 5-lipoxygenase (5-LOX) and acetylcholinesterase (AChE) at final concentrations of 0.5, 1.0, or 2.0 U/ml, along with 100 μl of PBS (pH 7.4), resulting in a total volume of 200 μl. The mixture was incubated at 37 °C for 30 min and subsequently filtered through a 100 kDa ultrafiltration membrane by centrifugation at high speed for 10 min. The supernatant was discarded, and the membrane was washed three times with PBS to remove free or non-specifically bound compounds. Then, 150 μl of 50% methanol–water was added to denature the proteins and release the bound small molecules. For the blank control, the enzyme solution was replaced with an equal volume of PBS, while all other experimental conditions remained the same. The resulting eluate was analyzed by HPLC. The binding degree (BD) was used to quantify the interaction between compounds and the target enzymes. It was calculated based on the increase in chromatographic peak area of enzyme-bound compounds, using the following formula: […]

5-LOX [2] = target: T2, 5-LOX (Glycine max, UniProt P08170); assay: Affinity ultrafiltration-HPLC binding degree to 5-LOX; details: GJR extract, 37 °C 30 min
T2 sequence (P08170 1-839): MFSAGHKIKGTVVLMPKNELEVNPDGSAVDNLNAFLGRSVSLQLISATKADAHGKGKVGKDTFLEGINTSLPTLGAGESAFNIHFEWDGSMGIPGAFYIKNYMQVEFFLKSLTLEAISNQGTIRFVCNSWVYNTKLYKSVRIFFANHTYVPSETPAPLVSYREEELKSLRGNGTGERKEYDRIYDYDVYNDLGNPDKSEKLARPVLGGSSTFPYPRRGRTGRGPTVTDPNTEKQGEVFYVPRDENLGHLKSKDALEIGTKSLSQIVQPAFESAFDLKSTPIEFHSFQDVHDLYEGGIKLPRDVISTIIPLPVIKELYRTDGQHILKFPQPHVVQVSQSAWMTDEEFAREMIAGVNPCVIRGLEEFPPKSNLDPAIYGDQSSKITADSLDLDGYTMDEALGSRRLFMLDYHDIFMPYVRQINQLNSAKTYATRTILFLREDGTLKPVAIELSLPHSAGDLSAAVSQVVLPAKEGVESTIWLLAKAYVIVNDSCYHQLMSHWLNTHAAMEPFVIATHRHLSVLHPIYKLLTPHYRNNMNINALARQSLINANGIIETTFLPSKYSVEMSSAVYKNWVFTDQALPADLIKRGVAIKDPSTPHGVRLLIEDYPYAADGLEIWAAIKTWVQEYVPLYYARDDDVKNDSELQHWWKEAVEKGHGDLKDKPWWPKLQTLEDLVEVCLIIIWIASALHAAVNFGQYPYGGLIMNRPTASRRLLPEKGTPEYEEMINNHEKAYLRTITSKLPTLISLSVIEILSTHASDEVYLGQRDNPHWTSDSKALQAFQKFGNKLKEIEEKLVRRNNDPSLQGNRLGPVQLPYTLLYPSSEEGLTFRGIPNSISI
Experimental: as §1, §2

AChE [3] = target: T1, AChE
Experimental: Acetylcholinesterase (AChE, EC 3.2.1.20) was extracted from fly heads.
All reagents were prepared with 0.05 mol/L phosphate buffer solution at pH 6.8. […] Before use, it was diluted to 0, 5, 10, 15, and 20 × 10^−5 mol/L. 5-LOX and linoleic acid were, respectively prepared at concentrations of 2.08 × 10^−7 and 5.0 × 10^−4 mol/L. AChE and iodinated thioacetylcholine were prepared using the same method.
The mixture was incubated for 10 min at 37 °C in a thermostatic water bath to form the enzyme reaction solution, followed by the addition of linoleic acid (5.0 × 10^−4 mol/L) as the substrate. […] For the AChE assay, 0.1 ml of DTNB solution was included in the reaction mixture and incubated under the same conditions as those used in the 5-LOX experiment, while all other procedural steps remained identical. The control group was not supplemented with samples, while the blank group received an equal volume of buffer solution in place of the enzyme solution. […] Enzyme activity in the absence of any inhibitor was regarded as 100%.
By analyzing the correlation between reaction rate and enzyme concentration, a kinetic curve was generated.
Data analysis was carried out using Origin 8.0 software through one-way ANOVA, with each sample group subjected to three independent replicate experiments (p < 0.05).

5-LOX [4] = target: T2, 5-LOX; assay: 5-LOX enzyme inhibition and inhibition kinetics (linoleic acid substrate, HPLC); assay type: biochemical; details: Lineweaver-Burk / rate vs enzyme concentration
Text: Galantamine served as the positive control.

T1 sequence (A0ABM3VDL1 81-660): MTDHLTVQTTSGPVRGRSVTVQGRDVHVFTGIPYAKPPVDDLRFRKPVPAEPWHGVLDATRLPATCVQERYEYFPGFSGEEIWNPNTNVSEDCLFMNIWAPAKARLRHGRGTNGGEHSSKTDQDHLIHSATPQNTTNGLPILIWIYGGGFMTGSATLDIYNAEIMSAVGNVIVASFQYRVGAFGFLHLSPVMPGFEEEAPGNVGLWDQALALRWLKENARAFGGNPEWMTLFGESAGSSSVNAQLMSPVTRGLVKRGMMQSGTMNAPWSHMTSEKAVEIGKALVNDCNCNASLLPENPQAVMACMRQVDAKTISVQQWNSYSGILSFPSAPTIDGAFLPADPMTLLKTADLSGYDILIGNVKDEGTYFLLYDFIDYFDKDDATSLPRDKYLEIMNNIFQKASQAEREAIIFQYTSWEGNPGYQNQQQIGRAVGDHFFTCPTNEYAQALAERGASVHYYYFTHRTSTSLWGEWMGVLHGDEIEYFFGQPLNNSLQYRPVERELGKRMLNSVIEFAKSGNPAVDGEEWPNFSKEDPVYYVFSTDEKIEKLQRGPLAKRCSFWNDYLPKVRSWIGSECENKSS

| Compound | BD (binding degree) with AChE (AChE [1]; AChE 0.5 U/ml) [%] | BD (binding degree) with AChE (AChE [1]; AChE 1.0 U/ml) [%] | BD (binding degree) with AChE (AChE [1]; AChE 2.0 U/ml) [%] | BD (binding degree) with 5-LOX (5-LOX [2]; 5-LOX 0.5 U/ml) [%] | BD (binding degree) with 5-LOX (5-LOX [2]; 5-LOX 1.0 U/ml) [%] | BD (binding degree) with 5-LOX (5-LOX [2]; 5-LOX 2.0 U/ml) [%] | Kis, AChE (AChE [3]; Lineweaver-Burk) | Inhibition type for AChE (AChE [3]; concentration exceeds 10 × 10^−5 mol/L) | Inhibition type for AChE (AChE [3]; concentrations below 5 × 10^−5 mol/L) | Inhibition type for AChE (AChE [3]; overall statement in conclusion) | Inhibition type for 5-LOX (5-LOX [4]) | Inhibition type for 5-LOX (5-LOX [4]; listed as mussaenoside acid) |
| --- | --- | --- | --- | --- | --- | --- | --- | --- | --- | --- | --- | --- |
| COc1cc(C2OCC3C(c4cc(OC)c(OC5OC(CO)C(O)C(O)C5O)c(OC)c4)OCC23)cc(OC)c1OC1OC(CO)C(O)C(O)C1O (stereo not drawn) [Eleutheroside E] | 12.19 | 21.06 | 69.87 | 38.17 | 55.16 | 59.44 | – | – | – | – | – | – |
| C[C@]1(O)CC[C@@H]2C(C(=O)O)=CO[C@@H](O[C@@H]3O[C@H](CO)[C@@H](O)[C@H](O)[C@H]3O)[C@@H]21 [Mussaenoside acid] | – | – | – | – | – | – | 102.08 | mixed-type inhibition | competitive inhibition | mixed-type inhibition | competitive inhibition | reversible inhibition |
